The source of these data is patent US8552208B2, “Analogs of tetramic acid” (University of Tennesseee Research Foundation, priority 2007, dated 2013).

Data set [1] has as its system Streptococcus pyogenes ATCC 700294. In words: Antibacterial activity assay (MIC, broth dilution). Conditions: ATCC700294; Streptococcus pyogenes ATCC 700294; read-out: MIC, SP. The class given is cell-based.
Data set [2] deals with MRSA (ATCC 35391) biofilm. In words: Calgary Biofilm Device anti-biofilm activity. The data set is classed as cell-based, Staphylococcus aureus. Conditions: Staphylococcus aureus, MRSA biofilm, triplicate runs listed singly; for MBC: read-out: MBEC = Minimum Biofilm Eradication Concentration; for MIC: read-out: MBIC = Minimum Biofilm Inhibitory Concentration.
The test system of data set [3] is Mycobacterium tuberculosis H37 Rv. In words: Antibacterial activity assay (MIC, broth dilution). The class given is cell-based. The following applies: H37RV, 168 h; Mycobacterium tuberculosis H37 Rv; […]; read-out: MIC, TB. (Broth dilution looks for growth in wells or tubes with falling amounts of substance.)
Data set [4] deals with Enterococcus faecalis ATCC 33186. In words: Antibacterial activity assay (MIC, broth dilution). Conditions: ATCC33186; Enterococcus faecalis ATCC 33186; read-out: MIC, EF. The class given is cell-based.
The test system of data set [5] is MSSA (ATCC 25293) biofilm. In words: Calgary Biofilm Device anti-biofilm activity. The data set is classed as cell-based. The following applies: Staphylococcus aureus, MSSA biofilm, triplicate runs listed singly; for MBC: read-out: MBEC = Minimum Biofilm Eradication Concentration; for MIC: read-out: MBIC = Minimum Biofilm Inhibitory Concentration.
Data set [6] has as its system Methicillin Resistant Staphylococcus aureus ATCC 33591. In words: Antibacterial activity assay (MIC, broth dilution). The class given is cell-based. The following applies: ATCC 33591 / MRSA, read-out: MIC, MRSA.
The subject of data set [7] is S. epidermidis (RP62A) biofilm. In words: Calgary Biofilm Device anti-biofilm activity. The data set is classed as cell-based. The following applies: Staphylococcus epidermidis, S. epidermidis biofilm, triplicate runs listed singly; for MBC: read-out: MBEC = Minimum Biofilm Eradication Concentration; for MIC: read-out: MBIC = Minimum Biofilm Inhibitory Concentration.
The test system of data set [8] is Methicillin sensitive Staphylococcus aureus 8325 ATCC 35556. In words: Antibacterial activity assay (MIC, broth dilution). The data set is classed as cell-based. Conditions: ATCC 35556 / MSSA; Methicillin sensitive Staphylococcus aureus 8325 ATCC 35556; read-out: MIC, MSSA.
The test system of data set [9] is Streptococcus pneumoniae DAW30EC. In words: Antibacterial activity assay (MIC, broth dilution). The class given is cell-based. The following applies: Streptococcus pneumoniae DAW30EC; read-out: MIC, SPn.
Data set [10] has as its system Propionibacterium acnes ATCC 6919. In words: Antibacterial activity assay (MIC, broth dilution). The following applies: Cutibacterium acnes, ATCC6919; Propionibacterium acnes ATCC 6919; read-out: MIC, PA. The class given is cell-based.
For data set [11], the system named is Bacillus subtilis ATCC 23857. In words: Antibacterial activity assay (MIC, broth dilution). The class given is cell-based. The following applies: ATCC23857; Bacillus subtilis ATCC 23857; read-out: MIC, BS.
Data set [12] has as its system Vero monkey kidney cell line (ATCC, CCL-81). In words: Cytotoxicity assay (MTT). The data set is classed as cell-based. Conditions: IC50 divided by MIC against S. aureus 8325. As to the method:
(§1) Cytotoxicity assays of drugs of Formula I of Example 3 and of Formula II of Example 5 were performed using the Vero monkey kidney cell line (ATCC, CCL-81). Vero cells were grown in tissue culture flasks in Dulbecco's Modified Eagle's Medium (ATCC) supplemented with 10% fetal bovine serum and maintained in a humidified incubator (37° C., 5% CO2). Cells were removed with a cell scraper, collected by centrifugation and then suspended in fresh medium at ˜10^6 cells/mL. The cell suspensions were dispensed into 96-well microtiter plates (100 μl/well) and incubated for 18 hours at 37° C. before being used for cytotoxicity assays. Test compounds were subsequently added at concentrations ranging from 400-0.024 μg/mL and 0.1% vol/vol of Triton-X 100, which causes 100% death of cells, was included as a control. After incubating cells and compounds for 72 hours in humid air (37° C., 5% CO2) the cytopathic effects of compounds were determined using the MTT Cell Proliferation Assay (ATCC, Cat No. 30-1010K). The MTT solution reagent (10 μl) was added to each well and plates incubated at 37° C. until sufficient purple color development occurred in cells (3 hours). After detergent cell lysis, the purple formazan product was measured at 570 nm in a Synergy HT Biotek microplate reader. IC50 data was obtained from dose response curves plotted from percentage activity versus log10 concentration using Graphpad prism 5.

Data set [13] can be described thus: Cytotoxicity assay (MTT). The data set is classed as cell-based, monkey. Conditions: monkey, Vero cells, 72 hours, MTT, read-out: IC50 (Cytotoxicity): Concentration which reduces viability of Vero kidney cells by 50%. As to the method:
as §1

The test system of data set [14] is Bacillus anthracis Sterne 34F2. In words: microbe, parasite or virus in culture. Conditions: STERNE34F2, read-out: MIC, BA. The data set is classed as cell-based.
In data set [15] the test system is clinical isolates of MRSA (methicillin resistant S. aureus). The data set is classed as cell-based.
Data set [16] relates to clinical isolates of MSSA (methicillin sensitive S. aureus). The data set is classed as cell-based.
Data set [17] deals with methicillin-sensitive S. aureus ATCC 29213. In words: Superficial skin infection model in mice. The data set is classed as in vivo, Balb/c mice. The following applies: 2% ointment, topical, twice daily for three days; bacteria in lesions on day 5; placebo 8.15 +/− 0.37. As to the method: Compounds of the invention were tested for the ability to treat skin infections utilizing an established animal model of skin infection. The superficial skin infection model used in this study was previously developed by Kugelberg et al, “Establishment of a Superficial Skin Infection Model in Mice using Staphylococcus aureus and Streptococcus pyogenes”, Antimicrob. Agents Chemother., 49(8):3435-3441 (2005).
Superficial infections in Balb/c mice (male) were caused by first removing hair from the backs of mice with an electric shaver, followed by dry shaving with a razor and tape stripping with Tensoplast® (BSN Medical Inc., Charlotte, N.C.) adhesive bandage to remove the epidermis, followed by infection with a 5 μl bacterial suspension containing about 10^7 bacterial cells of methicillin-sensitive S. aureus ATCC 29213, a strain from a previous isolate from a human wound infection and used in other murine infection studies. After 4 hours of infection, treatment was started by administering 45-50 mg of ointment containing (i) vehicle hydrophilic petrolatum (placebo) (ii) 2% w/w mupirocin ointment (Bactroban®, GlaxoSmithKline plc., United Kingdom) in vehicle or (iii) 2% tetramic acid analogue of the invention (13b) in vehicle, (iv) 10% tetramic acid analogue of the invention (13b) in vehicle, (v) 2% tetramic acid analogue of the invention (13l) in vehicle, or (vi) 10% tetramic acid analogue of the invention (13l) in vehicle. Treatment was continued for three days with drug application twice daily at 8 hour intervals. On day 5, mice were sacrificed and the numbers of bacteria in lesions were enumerated.
This conclusion stems from statistical analysis of the resulting means by one way ANOVA followed by Tukey's test at P<0.01 with Placebo as the control group. Therefore, the tetramic acid analogues of the invention have the potential to be used clinically for the treatment of skin infections, such as those caused by Staphylococcus aureus.

Where [18] appears, read: Vero monkey kidney cells (ATCC CCL-81).

≈ marks a conversion by molar mass, not a printed value. Where two headings read alike, the source gives them in different places.

Regarding `CCCCCCCCCCN1C(=O)/C(=C(/C)O)C(=O)[C@@H]1C(C)C` [Compound 13i, (S,Z)-1-decyl-3-(1-hydroxyethylidene)-5-isopropylpyrrolidine-2,4-dione], the MIC in data set [1] is 25 µg/mL (≈ 77.3 µM); in data set [2] it was 0.8 µg/mL (≈ 2.47 µM); in data set [3], 12.5 µg/mL (≈ 38.6 µM); in [4], 0.8 µg/mL (≈ 2.47 µM); in [5] it was 0.8 µg/mL (≈ 2.47 µM); in data set [6], 0.8 µg/mL (≈ 2.47 µM). Besides, the MIC in data set [7] amounted to 0.8 µg/mL (≈ 2.47 µM); in data set [8], 0.8 µg/mL (≈ 2.47 µM); in data set [9], 6.25 µg/mL (≈ 19.3 µM); in [10], 0.4 µg/mL (≈ 1.24 µM); in data set [11], 0.4 µg/mL (≈ 1.24 µM); in data set [14], 0.8 µg/mL (≈ 2.47 µM). In addition, the MBC in data set [2] stood at 25 µg/mL (≈ 77.3 µM); in [5], 100 µg/mL (≈ 309 µM); in data set [7], 25 µg/mL (≈ 77.3 µM). Also, the “IC50/MIC = Selectivity (therapeutic) index” value in data set [12] came out at 8.8. The IC50 at 72 h in [13] (setting [18]) worked out at 7 µg/mL.

Take `C/C(O)=C1\C(=O)[C@H](CC(C)C)N(Cc2ccc(-c3ccccc3)cc2)C1=O` [Compound 13k, (S,Z)-1-(biphenyl-4-ylmethyl)-3-(1-hydroxyethylidene)-5-isobutylpyrrolidine-2,4-dione]: the MIC in data set [1] is 25 µg/mL (≈ 68.8 µM); in data set [2], 0.8 µg/mL (≈ 2.2 µM); in [3], 50 µg/mL (≈ 138 µM); in [4] it was 0.8 µg/mL (≈ 2.2 µM); in [5] it was 3.12 µg/mL (≈ 8.58 µM); in data set [6], 0.8 µg/mL (≈ 2.2 µM). Moreover, the MIC in [7] was 1.6 µg/mL (≈ 4.4 µM); in data set [8], under 0.1 µg/mL; in [9], 12.5 µg/mL (≈ 34.4 µM); in data set [10], 0.2 µg/mL (≈ 0.55 µM); in data set [11], 0.4 µg/mL (≈ 1.1 µM); in [14], 0.4 µg/mL (≈ 1.1 µM). Moreover, the figures for the MBC in [2], in data set [5] and in [7] were 100 µg/mL (≈ 275 µM), 100 µg/mL (≈ 275 µM) and 200 µg/mL (≈ 550 µM), respectively. Further, the “Antibiotic MIC” value stood at 1.6 µg/mL in [15] (isolate MRSA-1); 1.6 µg/mL in data set [15] (isolate MRSA-2); 1.6 µg/mL in data set [15] (isolate MRSA-3); 1.6 µg/mL in data set [15] (isolate MRSA-4); 1.6 µg/mL in data set [15] (isolate MRSA-5); 0.8 µg/mL in data set [15] (isolate MRSA-6). Also, the “Antibiotic MIC” value worked out at 0.8 µg/mL in [15] (isolate MRSA-7); 0.4 µg/mL in data set [15] (isolate MRSA-8); 1.6 µg/mL in data set [15] (isolate MRSA-9); 0.8 µg/mL in data set [15] (isolate MRSA-10); 1.6 µg/mL in data set [16] (isolate MSSA-11); 0.8 µg/mL in data set [16] (isolate MSSA-12). Besides, the “Antibiotic MIC” value in [16] (isolate MSSA-13) is 0.8 µg/mL; in [16] (isolate MSSA-14), 0.8 µg/mL; in [16] (isolate MSSA-15), 0.4 µg/mL; in data set [16] (isolate MSSA-16) it was 0.8 µg/mL; in data set [16] (isolate MSSA-17) it was 0.8 µg/mL; in [16] (isolate MSSA-18), 0.8 µg/mL. Moreover, the “Antibiotic MIC” value in [16] (isolate MSSA-19) and in data set [16] (isolate MSSA-20) was 0.8 µg/mL each time. Besides, the “IC50/MIC = Selectivity (therapeutic) index” value in data set [12] is over 197. The IC50 at 72 h in [13] (setting [18]) amounted to 19.7 µg/mL.

On to `CC(C)=CCCC(C)CCN1C(=O)/C(=C(/C)O)C(=O)[C@@H]1CC(C)C` (stereo partly drawn) [Compound 13m, (5S,Z)-1-(3,7-dimethyloct-6-enyl)-3-(1-hydroxyethylidene)-5-isobutylpyrrolidine-2,4-dione], for which the MIC in data set [1] worked out at 25 µg/mL (≈ 74.5 µM); in [2], 0.8 µg/mL (≈ 2.38 µM); in [3], 200 µg/mL (≈ 596 µM); in data set [4], 0.8 µg/mL (≈ 2.38 µM); in data set [5], 0.8 µg/mL (≈ 2.38 µM); in data set [6], 0.8 µg/mL (≈ 2.38 µM). Also, the MIC in data set [7] was found to be 0.4 µg/mL (≈ 1.19 µM); in [8], 0.4 µg/mL (≈ 1.19 µM); in data set [9], 3.25 µg/mL (≈ 9.69 µM); in data set [10] it was 0.4 µg/mL (≈ 1.19 µM); in data set [11], 0.8 µg/mL (≈ 2.38 µM); in data set [14], 0.4 µg/mL (≈ 1.19 µM). Also, the values for the MBC in [2], in data set [5] and in [7] were 50 µg/mL (≈ 149 µM), 200 µg/mL (≈ 596 µM) and 200 µg/mL (≈ 596 µM), respectively. The “IC50/MIC = Selectivity (therapeutic) index” value in [12] amounted to 18.3. In addition, the IC50 at 72 h in data set [13] stood at 7.3 µg/mL.

On to `C/C(=C\C(=O)OCCCCCCCCC(=O)O)C[C@@H]1OC[C@H](C[C@@H]2O[C@H]2[C@@H](C)[C@H](C)O)[C@@H](O)[C@H]1O` [Mupirocin, mupirocin, reference compound], for which the MBC in data set [2], in data set [5] and in data set [7] was over 400 µg/mL each time. Moreover, the MIC in [2], in data set [5] and in [7] was under 0.2 µg/mL throughout. For the same compound, in data set [17], the “Mean Bacterial Count (log10) +/− SD” value is 5.95 +/− 0.92 log10.
